Literature values, collected in patent US12514830B2, “Idebenone for the treatment of Acute Respiratory Distress Syndrome (ARDS) in patients diagnosed with a coronavirus infection” (BEMIDO SA, priority 2020, dated 2026).

Test system: patients with Duchenne muscular dystrophy (DMD)
Details: long-term treatment, for up to 6 years, real-world setting

COC1=C(OC)C(=O)C(CCCCCCCCCCO)=C(C)C1=O [idebenone, 2-(10-hydroxydecyl)-5,6-dimethoxy-3-methyl-cyclohexa-2,5-diene-1,4-dione]
rate of respiratory function loss: consistently reduced the rate of respiratory function loss
